We go through 1 compound from US6444681B1, “Methods and compositions for treating Raynaud's Phenomenon and scleroderma” (The Ohio State University Research Foundation, priority 2000, dated 2002).

Assay [1] deals with T1, α-2A (Homo sapiens, UniProt P08913).
T1 sequence (P08913 1-465): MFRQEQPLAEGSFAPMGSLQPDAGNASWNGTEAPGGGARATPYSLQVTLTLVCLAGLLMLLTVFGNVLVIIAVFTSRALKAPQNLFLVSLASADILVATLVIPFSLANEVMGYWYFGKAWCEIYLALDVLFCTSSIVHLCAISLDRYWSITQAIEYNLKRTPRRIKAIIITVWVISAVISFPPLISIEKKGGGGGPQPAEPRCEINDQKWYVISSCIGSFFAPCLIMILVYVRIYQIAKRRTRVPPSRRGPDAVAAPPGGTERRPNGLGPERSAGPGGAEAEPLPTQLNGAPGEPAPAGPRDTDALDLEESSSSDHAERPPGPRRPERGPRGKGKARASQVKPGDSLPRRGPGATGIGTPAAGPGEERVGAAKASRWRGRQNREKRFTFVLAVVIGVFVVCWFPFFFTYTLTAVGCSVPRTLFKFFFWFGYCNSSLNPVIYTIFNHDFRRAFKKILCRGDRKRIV
Particulars: cited from earlier work.

The subject of assay [2] is small dermal arteries/arterioles from healthy controls and SSc subjects. As to the kind of experiment: α2C-AR blockade of UK 14,304 vasoconstriction in human dermal arteries from control and SSc subjects. It is filed as cell-based. Particulars: for Kb: Homo sapiens, topical, versus UK 14,304, read-out: calculated dissociation constant, −log Kb (converted). The method, then: Arterioles were dissected from the deep dermal plexus of the biopsies and any side branches tied. […] The arterioles were cannulated with glass micropipettes and placed in a microvessel chamber as previously describe. The arterioles were maintained in no-flow state at a constant transmural pressure (PTM)of 40 mmHg. The chamber was superfused with buffer solution (37° C., pH 7.4, gassed with 16% O2-5% CO2-balance N2) and placed on stage of an inverted microscope for continuous monitoring of internal diameter using a video camera and video dimension analyzer.
In order to determine the influence of α2C-AR blockade, paired arteries from each subject were used. […] In the other artery of each pair, increasing concentrations of the α2C-AR antagonist (MK 912) was administered before the response to UK 14,304 was determined.

The target of assay [3] is T2, α-2C (Homo sapiens, UniProt P18825).
T2 sequence (P18825 1-462): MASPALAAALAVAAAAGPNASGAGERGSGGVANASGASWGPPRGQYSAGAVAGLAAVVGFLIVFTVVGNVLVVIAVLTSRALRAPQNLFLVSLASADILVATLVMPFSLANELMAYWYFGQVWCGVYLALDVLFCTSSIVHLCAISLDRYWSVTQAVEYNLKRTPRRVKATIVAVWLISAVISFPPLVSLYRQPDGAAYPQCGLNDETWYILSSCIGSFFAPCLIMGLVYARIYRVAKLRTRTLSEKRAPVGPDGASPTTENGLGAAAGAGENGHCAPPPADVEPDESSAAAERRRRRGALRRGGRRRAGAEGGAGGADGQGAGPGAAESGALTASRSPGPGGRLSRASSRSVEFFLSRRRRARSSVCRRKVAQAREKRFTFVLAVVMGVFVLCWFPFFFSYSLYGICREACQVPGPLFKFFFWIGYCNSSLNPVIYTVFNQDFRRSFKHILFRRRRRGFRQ
The settings on record: cited from earlier work.

For assay [4], the target named is T3, α-2B (Homo sapiens, UniProt P18089).
T3 sequence (P18089 1-450): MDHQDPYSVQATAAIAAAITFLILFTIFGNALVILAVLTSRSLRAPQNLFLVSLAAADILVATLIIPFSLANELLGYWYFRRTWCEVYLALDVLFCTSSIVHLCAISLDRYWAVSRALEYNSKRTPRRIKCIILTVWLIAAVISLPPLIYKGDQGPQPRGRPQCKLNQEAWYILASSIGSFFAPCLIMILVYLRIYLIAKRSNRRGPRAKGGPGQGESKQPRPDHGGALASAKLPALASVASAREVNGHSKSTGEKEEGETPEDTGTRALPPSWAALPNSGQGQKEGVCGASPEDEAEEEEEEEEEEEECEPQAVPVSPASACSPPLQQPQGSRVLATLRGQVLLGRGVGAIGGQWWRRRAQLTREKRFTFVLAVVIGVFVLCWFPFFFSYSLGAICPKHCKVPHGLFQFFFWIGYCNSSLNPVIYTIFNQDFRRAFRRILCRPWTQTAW
The settings on record: cited from earlier work.

Like-named read-outs stand apart in the source and are kept apart here.

A word on the Kd: it is the free concentration of one partner at which half of the binding sites on the other are occupied at equilibrium, for simple one-to-one binding. As for `CN1CCC2(CCN3CCc4c(oc5ccccc45)C3C2)N(C)C1=O` (centres unmarked) [MK 912], the Kd in assay [1] is 1.8 nM; in assay [3], 0.045 nM; in assay [4], 0.33 nM. Besides, the Kb is 0.00123 nM in assay [2] (SSc arteries) and 0.468 nM in assay [2] (control arteries). Moreover, the “effect on vasoconstrictor response to α2-AR stimulation” value in assay [2] (SSc arteries, extremely low concentrations (e.g. 10^−11M)) is on record as “reduced the vasoconstrictor response”. Further, the “concentration needed to inhibit responses to UK 14,304” value in assay [2] (control arteries) is 10^−9 M. The “concentration needed in control arteries relative to SSc arteries” value in assay [2] (control versus SSc arteries) stood at 100 fold.
